Measured values taken from patent US20240018136A1, “CDK Inhibitors And Their Use As Pharmaceuticals” (Prelude Therapeutics, Incorporated, priority 2022, published 2024).

How the values were obtained:
[1] = target: T1, CDK4/Cyclin D1 (Homo sapiens, UniProt P11802); assay: CDK4/CyclinD1 enzymatic activity assay (TR-FRET); format: biochemical; settings: ATP 2 mM final, read-out: CDK4_D1 IC50
T1 construct: purchased ProQinase; host or cells: insect cell
Protocol: CDK4/CyclinD1 Enzymatic Activity Assay
(§1) The inhibitory activity of compounds was evaluated in vitro using TR-FRET assay with white 384-well low volume microplate (Greiner Bio-One). CDK4/Cyclin D1 catalyzed phosphorylation of peptide in the presence and absence of compounds was measured and used in IC5 determination. Recombinant protein complex CDK4/Cyclin D1, expressed from insect cell, was purchased from ProQinase. Testing compounds were dissolved in DMSO at 1 mM and tested in 9-dose IC50 mode. The reaction mixture was prepared by mixing CDK4/CyclinD1 (1 nM final), ULight-4E-BP1 (100 nM final, Perkinelmer, TRF0128-D), and ATP (2 mM final) in assay buffer (20 mM of HEPES pH 7.4, 1 mM of EGTA, 0.05% BSA, 0.005% Tween 20, and 1 mM TCEP). The compound of interest in DMSO was added to each well in 3-fold serial dilution by dispenser (TECAN D300E) to make a 9.9 μL of reaction mixture. After 20 minutes preincubation at room temperature, 0.1 μL MgCl2 (10 mM final) was added to initiate the reaction. Following a 45 minute incubation at 37° C., the reaction was stopped by addition of 2 μL of quenching buffer consisting of Lance detection buffer (Perkinelmer CR97-100C), LANCE Ultra Europium-anti-P-4E-BP1 (Perkinelmer, TRF0216-D), EDTA, and incubate at room temperature for an additional 60 minutes in the dark. The reaction signal was measured by Envision multimode plate reader (PerkinElmer, 2102-0010). IC50 values were determined by fitting the data to the standard 4 parameters with Hill Slope using GraphPad Prism software.

[2] = tested on: OVCAR3 p-RB; assay: pRB ICW assay in OVCAR3 cells; format: cell-based; settings: Homo sapiens, OVCAR-3, incubated with compound for 2 hours
Protocol: pRB ICW Assay in OVCAR3 Cells
OVCAR3 cells were maintained in RPMI (Corning, Catalog #: 10-040-CV) supplemented with 10% v/v FBS (Gibco, Catalog #: 26140-079), 1% v/v Penicillin Streptomycin (Gibco, Catalog #15140-122.) OVCAR3 cells grown at log phase were trypsinized, counted, and resuspended in fresh medium to reach a final density of 6.7e4 cells/mL and 75 μL of culture were dispensed into a 384-well plate (Falcon, cat #353962) using Multidrop Combi dispenser (Thermo Scientific). The next day, compounds were dispensed as a 9-point, ½ log serial dilution using a Tecan digital dispenser (D300e), and cells were incubated with compound for 2 hours in a humidified incubator at 37° C. A reference compound at a final concentration of 10 μM was used as a control for maximum inhibition. Each compound was tested in duplicates in each experiment. At the end of the incubation, 25 μL of 16% paraformaldehyde (Electron Microscopy, cat #15710) was slowly added to each well and the plate was incubated at room temperature (RT) for 30 minutes to fix cells. Cells were then permeabilized by incubating with 50 μL/well of wash buffer (lx PBS with 0.1% Triton X-100) 5×5 minutes, followed by 1 hour blocking with 30 μL/well of Odyssey blocking buffer (Li-COR, cat #927-40000), all at RT. Anti-phosphor RB antibody (Cell signaling 8516S) was diluted 1:1000 in Odyssey blocking buffer and 20 μL was added to all wells and incubated overnight in 4° C. with gently rocking. The next day, cells were washed 5×5 min with 50 μL/well of wash buffer, followed with 1 hour incubation with secondary antibody and DRAQ5 diluted in Odyssey blocking buffer (1:500 dilution for secondary antibody and 1:2000 dilution for DRAQ5), 5×5 min washes, and one last wash with water. Plates were dried in 37° C. oven for 5 min and scanned using Li-COR Odyssey CLx imaging system to acquire intensities at 700 and 800 nm channels.

[3] = target: CDK2/Cyclin E2 (Homo sapiens, UniProt P24941); assay: CDK2/CyclinE2 enzymatic activity assay (TR-FRET); format: biochemical; settings: ATP 1 mM final, read-out: CDK2_E1 IC50
Protocol: CDK2/CyclinE2 Enzymatic Activity Assay
as §1, with “Bio-One). CDK2/Cyclin E2” for “Bio-One). CDK4/Cyclin D1”, “in IC50” for “in IC5”, “complex CDK2/Cyclin E2,” for “complex CDK4/Cyclin D1,”, “mixing CDK2/CyclinE2” for “mixing CDK4/CyclinD1”, “ULight-4E-BP1 (50” for “ULight-4E-BP1 (100”, “ATP (1” for “ATP (2”

T1 sequence (P11802 whole entry): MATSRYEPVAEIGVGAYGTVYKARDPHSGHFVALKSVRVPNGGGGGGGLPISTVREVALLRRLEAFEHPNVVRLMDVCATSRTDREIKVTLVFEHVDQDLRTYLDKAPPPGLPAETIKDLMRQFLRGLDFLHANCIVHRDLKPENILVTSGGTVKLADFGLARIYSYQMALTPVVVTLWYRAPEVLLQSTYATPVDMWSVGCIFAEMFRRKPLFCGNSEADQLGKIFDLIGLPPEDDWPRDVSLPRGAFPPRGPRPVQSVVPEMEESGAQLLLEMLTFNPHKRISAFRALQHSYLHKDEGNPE
T1 sequence (P24385 whole entry partner): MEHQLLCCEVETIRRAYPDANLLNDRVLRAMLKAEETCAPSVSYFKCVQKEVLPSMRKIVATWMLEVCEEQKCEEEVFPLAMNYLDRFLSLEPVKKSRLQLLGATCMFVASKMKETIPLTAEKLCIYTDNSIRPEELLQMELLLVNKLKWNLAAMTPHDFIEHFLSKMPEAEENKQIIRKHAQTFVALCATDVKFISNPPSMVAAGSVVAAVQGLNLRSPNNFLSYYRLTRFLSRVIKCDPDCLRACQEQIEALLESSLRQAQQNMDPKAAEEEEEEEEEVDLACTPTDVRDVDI

With `CN(C)c1ncc(-c2nc(NC3CCN(S(C)(=O)=O)CC3)ncc2C(F)(F)F)s1` [Example 29, N,N-dimethyl-5-[2-[(1-methylsulfonylpiperidin-4-yl)amino]-5-(trifluoromethyl)pyrimidin-4-yl]-1,3-thiazol-2-amine] as the compound, how does the IC50 [1] read?
The IC50 was at most 100 nM.

And the IC50 [2]?
Its IC50 is 100 to 1000 nM.

What about the IC50 [3] of the same compound?
Its IC50 is at most 100 nM.

`Cc1ncc(-c2nc(NC3CCN(S(C)(=O)=O)CC3)ncc2C(F)(F)F)o1` [Example 66, 4-(2-methyl-1,3-oxazol-5-yl)-N-(1-methylsulfonylpiperidin-4-yl)-5-(trifluoromethyl)pyrimidin-2-amine] was tested. Which IC50 [1] did it give?
Its IC50 is over 1000 nM.

What about the IC50 [3] of the same compound?
Its IC50 is 100 to 1000 nM.

What does the source list for `CS(=O)(=O)N1CCC(Nc2ncc(C(F)(F)F)c(-c3cnc(C4=CCCC4)s3)n2)CC1` [Example 4, 4-[2-(Cyclopenten-1-yl)-1,3-thiazol-5-yl]-N-(1-methylsulfonylpiperidin-4-yl)-5-(trifluoromethyl)pyrimidin-2-amine]?
IC50 [1]: ≤ 100 nM; IC50 [2]: > 1000 nM; IC50 [3]: ≤ 100 nM

Which results are given for `Cn1cc(S(=O)(=O)N2CCC(Nc3ncc(C(F)(F)F)c(-c4cnc(C(O)C(F)(F)F)s4)n3)CC2)cn1` (centres unmarked) [Example 89, 2,2,2-trifluoro-1-(5-(2-((1-((1-methyl-1H-pyrazol-4-yl)sulfonyl)piperidin-4-yl)amino)-5-(trifluoromethyl)pyrimidin-4-yl)thiazol-2-yl)ethan-1-ol]?
IC50 [1]: ≤ 100 nM; IC50 [2]: ≤ 100 nM; IC50 [3]: ≤ 100 nM

What does the source list for `Cc1ncc(-c2nc(NC3CCN(S(=O)(=O)CCO)CC3)ncc2C(F)(F)F)s1` [Example 61, 2-[4-[[4-(2-methyl-1,3-thiazol-5-yl)-5-(trifluoromethyl)pyrimidin-2-yl]amino]piperidin-1-yl]sulfonylethanol]?
IC50 [1]: ≤ 100 nM; IC50 [2]: 100 to 1000 nM; IC50 [3]: ≤ 100 nM

Which IC50 [1] does the source give for `Cc1ncc(-c2nc(NC3CCN(S(=O)(=O)C4CC4)CC3)ncc2C(F)(F)F)s1` [Example 46, N-(1-(Cyclopropylsulfonyl)piperidin-4-yl)-4-(2-methylthiazol-5-yl)-5-(trifluoromethyl)pyrimidin-2-amine] here?
Its IC50 is 100 to 1000 nM.

What about the IC50 [2] of the same compound?
The IC50 was 100 to 1000 nM.

And the IC50 [3]?
The IC50 was at most 100 nM.

What does the source list for `COC(=O)Nc1ncc(-c2nc(NC3CCN(S(C)(=O)=O)CC3)ncc2C(F)(F)F)s1` [Example 54, Methyl N-[5-[2-[(1-methylsulfonylpiperidin-4-yl)amino]-5-(trifluoromethyl)pyrimidin-4-yl]-1,3-thiazol-2-yl]carbamate]?
IC50 [1]: 100 to 1000 nM; IC50 [2]: > 1000 nM; IC50 [3]: ≤ 100 nM

Which results are given for `CS(=O)(=O)N1CCC(Nc2ncc(C(F)(F)F)c(-c3cnc(CN)s3)n2)CC1` [Example 64, 4-[2-(Aminomethyl)-1,3-thiazol-5-yl]-N-(1-methylsulfonylpiperidin-4-yl)-5-(trifluoromethyl)pyrimidin-2-amine]?
IC50 [1]: 100 to 1000 nM; IC50 [2]: > 1000 nM; IC50 [3]: ≤ 100 nM

What does the source list for `CCOc1ncc(-c2nc(NC3CCN(S(C)(=O)=O)CC3)ncc2C(F)F)s1` [Example 49, 5-(Difluoromethyl)-4-(2-ethoxy-1,3-thiazol-5-yl)-N-(1-methylsulfonylpiperidin-4-yl)pyrimidin-2-amine]?
IC50 [1]: 100 to 1000 nM; IC50 [3]: 100 to 1000 nM

`CS(=O)(=O)N1CCC(Nc2ncc(C(F)(F)F)c(-c3cnc(-c4ccccc4CO)s3)n2)CC1` [Example 23, [2-[5-[2-[(1-Methylsulfonylpiperidin-4-yl)amino]-5-(trifluoromethyl)pyrimidin-4-yl]-1,3-thiazol-2-yl]phenyl]methanol] was tested. Which IC50 [3] did it give?
Its IC50 is at most 100 nM.

What does the source list for `COCc1ncc(-c2nc(NC3CCN(S(C)(=O)=O)CC3)ncc2C(F)(F)F)s1` [Example 53, 4-[2-(Methoxymethyl)-1,3-thiazol-5-yl]-N-(1-methylsulfonylpiperidin-4-yl)-5-(trifluoromethyl)pyrimidin-2-amine]?
IC50 [1]: 100 to 1000 nM; IC50 [3]: ≤ 100 nM

`Cc1ncc(-c2nc(NC3CCN(S(C)(=O)=O)CC3)ncc2C(F)F)s1` [Example 43, 5-(Difluoromethyl)-N-(1-methylsulfonylpiperidin-4-yl)-4-(2-methyl-1,3-thiazol-5-yl)pyrimidin-2-amine] was tested. Which IC50 [1] did it give?
The IC50 was 100 to 1000 nM.

And the IC50 [3]?
Its IC50 is at most 100 nM.

Which results are given for `Cc1nc(C)c(-c2nc(NC3CCN(S(C)(=O)=O)CC3)ncc2F)s1` [Example 16, 4-(2,4-dimethylthiazol-5-yl)-5-fluoro-N-(1-(methylsulfonyl)piperidin-4-yl)pyrimidin-2-amine]?
IC50 [1]: > 1000 nM; IC50 [3]: 100 to 1000 nM

`Cc1c(-c2ncc(-c3nc(NC4CCN(S(C)(=O)=O)CC4)ncc3C(F)(F)F)s2)cnn1CCO` [Example 18, 2-[5-methyl-4-[5-[2-[(1-methylsulfonylpiperidin-4-yl)amino]-5-(trifluoromethyl)pyrimidin-4-yl]-1,3-thiazol-2-yl]pyrazol-1-yl]ethanol] was tested. Which IC50 [1] did it give?
The IC50 was 100 to 1000 nM.

What about the IC50 [3] of the same compound?
Its IC50 is at most 100 nM.

With `CS(=O)(=O)N1CCC(Nc2ncc(C(F)(F)F)c(-c3cnc(C4CCCC4)s3)n2)CC1` [Example 5, 4-(2-Cyclopentyl-1,3-thiazol-5-yl)-N-(1-methylsulfonylpiperidin-4-yl)-5-(trifluoromethyl)pyrimidin-2-amine] as the compound, how does the IC50 [1] read?
Its IC50 is at most 100 nM.

And the IC50 [3]?
Its IC50 is at most 100 nM.

For `CCOC(=O)Nc1ncc(-c2nc(NC3CCN(S(C)(=O)=O)CC3)ncc2C(F)(F)F)s1` [Example 55, Ethyl N-[5-[2-[(1-methylsulfonylpiperidin-4-yl)amino]-5-(trifluoromethyl)pyrimidin-4-yl]-1,3-thiazol-2-yl]carbamate], which IC50 [1] is on record?
The IC50 was over 1000 nM.

And the IC50 [3]?
Its IC50 is 100 to 1000 nM.

With `COc1ncc(-c2nc(NC3CCN(S(C)(=O)=O)CC3)ncc2C(F)F)s1` [Example 50, 5-(difluoromethyl)-4-(2-methoxy-1,3-thiazol-5-yl)-N-(1-methylsulfonyl-piperidin-4-yl)pyrimidin-2-amine] as the compound, how does the IC50 [1] read?
Its IC50 is 100 to 1000 nM.

And the IC50 [3]?
The IC50 was at most 100 nM.

How did the IC50 [1] turn out when `CC(C)Oc1ncc(-c2nc(NC3CCN(S(C)(=O)=O)CC3)ncc2C(F)F)s1` [Example 51, 5-(Difluoromethyl)-N-(1-methylsulfonylpiperidin-4-yl)-4-(2-propan-2-yloxy-1,3-thiazol-5-yl)pyrimidin-2-amine] was run?
The IC50 was at most 100 nM.

And the IC50 [3]?
The IC50 was at most 100 nM.

Which IC50 [1] does the source give for `CC(C)NC(=O)Nc1ncc(-c2nc(NC3CCN(S(C)(=O)=O)CC3)ncc2C(F)(F)F)s1` [Example 56, 1-[5-[2-[(1-Methylsulfonylpiperidin-4-yl)amino]-5-(trifluoromethyl)pyrimidin-4-yl]-1,3-thiazol-2-yl]-3-propan-2-ylurea] here?
Its IC50 is over 1000 nM.

And the IC50 [3]?
Its IC50 is 100 to 1000 nM.
